Assay results published in publication PMC6558518 (Angewandte Chemie (International ed. in English), 2018).

Assays:
HeLa cells [1] = assay: MTT assay of cell viability / anti-proliferative activity; type: cell-based
HeLa cells [2] = assay: Mitochondrial membrane potential with JC-10 dye; details: 20 μM

COC1=C2C[C@@H](C)C[C@H](OC)[C@H](O)[C@@H](C)/C=C(\C)[C@H](OC(N)=O)[C@@H](OC)/C=C\C=C(/C)C(=O)NC(=CC1=O)C2=O [GA, Geldanamycin]
inhibitor concentration at which maximum inhibition was reached (HeLa cells [1]; HeLa cells): 0.3 µM | maximum inhibition in HeLa cell viability (HeLa cells [1]; at saturating concentrations): ~ 40%

p-trifluoromethoxy carbonyl cyanide phenyl hydrazone [FCCP]
increase of F520/F590 ratio above the normal value (HeLa cells [2]): up to 7 fold
